Measured values: patent US20050136444A1 (priority 2003, published 2005)

Target: T1, EP2 receptor (Homo sapiens, UniProt P43116)
T1 construct: expressed in transfected cells; host or cells: HEK-T
Experiment: cAMP response to PGE2 in HEK-T cells (EP2 co-transfection)
Format: cell-based
Conditions: doses as high 10 μM
Excerpt: An assay was established for measuring cAMP in transiently transfected cells that takes advantage of the fact that most cells that are transfected with one gene, can be simultaneously transfected with other genes. Thus, the NPFF1 and NPFF2 receptors were transfected along with a Gs-coupled receptor (EP2) at a ratio of 5:1.

T1 sequence (P43116 whole entry): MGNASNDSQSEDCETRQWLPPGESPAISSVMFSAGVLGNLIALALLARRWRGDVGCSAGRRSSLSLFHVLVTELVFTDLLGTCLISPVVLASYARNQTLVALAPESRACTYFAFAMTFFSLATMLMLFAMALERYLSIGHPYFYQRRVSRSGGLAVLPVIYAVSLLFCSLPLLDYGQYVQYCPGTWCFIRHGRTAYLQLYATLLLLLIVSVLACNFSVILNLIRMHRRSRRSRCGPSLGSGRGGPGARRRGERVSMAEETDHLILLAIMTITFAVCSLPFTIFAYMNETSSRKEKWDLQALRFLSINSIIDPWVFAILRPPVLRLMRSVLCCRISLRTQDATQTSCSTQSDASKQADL

For `CCCCC[C@H](O)/C=C/[C@H]1[C@H](O)CC(=O)[C@@H]1C/C=C\CCCC(=O)O` [PGE2], the “response in un-transfected HEK-T cells” value was “no response”.
